Legend:
[1] = In vitro free radical scavenging antioxidant potency (DPPH); assay type: biochemical; conditions: 500 μM DPPH in ethanol, tris-HCl buffer pH 7.4, 45 minutes in dark, absorbency at 517 nm, triplicate
Description: Antioxidant activity of the compounds was tested for its capacity/potency to scavenge most widely used free radical, 1,1-diphenyl-2-picryl hyrazyl radical (DPPH). […] 200 μl of test compounds were reconstituted to 1 ml in tris-HCl buffer (pH 7.4). […] After incubation for 45 minutes in dark, the absorbency at 517 nm was recorder. Percent radical scavenging activity was calculated accordingly. All the readings were taken in triplicate.

[2] = Japanese Pat No. JP02,101,011; cited from earlier work
SHBG = target: T1, SHBG (Homo sapiens, UniProt P04278); conditions: Z. Naturforsch, C. Biosc. 997,52,834-843; cited from earlier work
T1 sequence (P04278 30-402): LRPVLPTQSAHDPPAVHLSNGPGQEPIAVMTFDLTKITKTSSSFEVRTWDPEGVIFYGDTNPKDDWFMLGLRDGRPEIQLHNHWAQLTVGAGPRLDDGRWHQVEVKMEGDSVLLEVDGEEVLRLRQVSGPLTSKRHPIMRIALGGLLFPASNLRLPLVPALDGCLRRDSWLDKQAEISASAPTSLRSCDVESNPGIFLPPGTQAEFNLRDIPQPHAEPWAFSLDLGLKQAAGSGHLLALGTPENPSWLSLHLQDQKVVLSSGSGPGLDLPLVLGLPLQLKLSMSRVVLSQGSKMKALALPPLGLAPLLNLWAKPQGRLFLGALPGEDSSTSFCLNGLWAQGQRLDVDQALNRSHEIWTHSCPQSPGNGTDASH

[3] = Japanese Pat. No. JP0131J17; cited from earlier work

SMILES	50% Radical scavenging concentration [1]	Activity: cardiotonic [2]	Activity: binding to SHBG (SHBG)	Activity: antitumor [3]
Cc1c(C)c2c(c(C)c1O)CCC(C)(CCCC(C)CCCC(C)CCCC(C)C)O2 (stereo not drawn) [DL α- Tocopherol, reference compound]	47.80 µg/mL			
COc1cc(CC(CO)C(CO)Cc2ccc(O)c(OC)c2)ccc1O (single isomer, unassigned; (-)) [(−)-Secoisolariciresinol, 2,3Bis-[4-hydroxy-3-(methoxyphenyl)methyl]-1,4-butanediol]	13.72 µg/mL	2. Cardiotonic	3. Binding to SHBG	1. Antitumor agent
